According to US11191811B2, “Osteocalcin as a treatment for frailty associated with aging” (THE TRUSTEES OF COLUMBIA UNIVERSITY IN THE CITY OF NEW YORK, priority 2014, dated 2021):

Tests used:
Type in all cases: cell-based, mouse
[1] = system: WT myotubes; experiment: Gene expression (qPCR) in myotubes treated with Ocn
Protocol: FIG. 28. Osteocalcin signaling in myofibers favors uptake and oxidation of fatty acids. (A-B) Acylcarnitine levels in muscles and plasma of Gprc6af/f and Gprc6aMck−/− mice, at rest and after a single bout of exercise (n=4-6 per group). (C) OCR in myofibers cultured in KHR buffer containing 3 mM oleic acid. (D) ATP accumulations in muscles of Gprc6af/f and Gprc6aMck−/− mice after a single bout of exercise (n=6 per group). (E) Western blot analysis of HSL phosphorylation (Ser563) in muscles of Gprc6af/f and Gprc6aMck−/− mice after a single bout of exercise. (F-G) Cd36, Fatp1 and Cpt1b expression in WT and Gprc6a−/− myotubes or WT myotubes treated with Ocn (10 ng/ml). (H) Fatp1 expression in muscles of Gprc6af/f; Gprc6aMck−/− and Ocn+/−; Gprc6aMck+/− mice, at rest and after a single bout of exercise (n=4-6 per group). (I) Western blot analysis of FATP1 in muscle of Gprc6af/f and Gprc6aMck−/− mice after exercise. (J) Cd36, Fatp1 and Cpt1b expression in muscles of Creb f/f and CrebMck−/− mice after a single bout of exercise. (K) Western blot analysis of CREB phosphorylation (Ser133) in muscles of Gprc6af/f and Gprc6aMck−/− mice after a single bout of exercise. (L) Performance during endurance exercise of 3 month-old Gprc6aMck+/−; CrebMck+/−, CrebMck+/− and control mice (n=8-13 per group).
Serum osteocalcin, PINP, CTX, and insulin levels were measured using ELISA assays. Blood glucose level was measured using an Accu-Check glucometer. Urine 3-MHT was measured as previously described (Aranibar et al., 2011, Anal. Biochem. 410:84-91). Determination of cAMP accumulation was performed using a commercial kit (R&D). For gene expression, 1 μg of total RNA was reverse transcribed into cDNA. qPCR analyses were performed using a SYBER green master mix (Applied Biosciences) and a CFX-Connect real time PCR (Bio-Rad). Relative expression levels of each gene were normalized to that of Hprt or Gapdh. For in situ hybridization, muscle was frozen in liquid N2-cooled methylbutane. Samples were sectioned at 10 μm using a cryostat. […]

[2] = system: Gprc6a−/− myotubes; experiment: cAMP accumulation in myotubes; conditions: Ocn 10 ng/ml
Protocol: (§1) FIG. 25. Osteocalcin signaling in myofibers is necessary for muscle function during exercise. (A) Serum total osteocalcin (Ocn) and insulin (Ins) levels measured in mice at rest or after a single bout of exercise (40 min, 30 cm/s running on a treadmill) (n=7 per group). (B) Serum uncarboxylated (uncarb)-Ocn levels measured in mice at rest and 0, 1, 2 and 4 hours after a single bout of exercise (40 min, 30 cm/s running on a treadmill) (n=7 per group). (C) Serum CTX levels in mice at rest and after a single bout of exercise (n=7 per group). (D) Performance during endurance exercise of 3 month-old female Ocn-deficient and WT littermates (n=8-10 per group). (E) Performance during endurance exercise of 3 month-old Ocn f/f and OcnOsb−/− littermates (n=3-5 per group). (F) Performance during endurance exercise of 3 month-old female Gprc6a-deficient and WT littermates (n=8-10 per group). (G) Gprc6a expression in various tissues. (H) Gprc6a expression in EDL and soleus muscles (n=3). (I) In situ hybridization analysis of Gprc6a expression in soleus muscle. (J) Gprc6a expression in WT and Ocn−/− muscles (n=6 per group). […]
(§2) Serum osteocalcin, PINP, CTX, and insulin levels were measured using ELISA assays. Blood glucose level was measured using an Accu-Check glucometer. Urine 3-MHT was measured as previously described (Aranibar et al., 2011, Anal. Biochem. 410:84-91). […]

[3] = system: WT myotubes; experiment: cAMP accumulation in myotubes; conditions: Ocn 10 ng/ml
Protocol: as §1, §2

“uncarboxylated osteocalcin: Recombinant uncarboxylated mouse osteocalcin, bacterially produced, purified on glutathione beads and cleaved from the GST subunit by thrombin (YLGASVPSPDPLEPTREQCELNPACDELSDQYGLKTAYKRIYGITI)” was tested, and the “expression of Il6” value [1] was “increased”, the “expression of Cpt1b” value ([1]; Ocn 10 ng/ml) was “increased” and the “expression of Fatp1” value ([1]; Ocn 10 ng/ml) was “increased”. For the same substance, the cAMP production [2] was “did not increase” and the cAMP production [3] was “increase”.
